Entries after “also recorded” stand apart in the source; their conditions may differ.
How the values were obtained:
[1] = test system: E. coli BL21-GOLD (DE3) carrying Nitrotrp pathways (TB14, BsNOS, GDH); assay type: cell-based, Escherichia coli; details: for nitration of fed analog by E. coli-II: 5 mM analog fed to fermentation medium of E. coli-II
[2] = test system: E. coli BL21 Gold cells expressing TB14, BsNOS and GDH; experiment: Whole-cell biotransformation (whole cell nitration system, Example 2/278); assay type: cell-based, Escherichia coli; details: TB medium, analogue fed as substrate
Description: For analytical analysis, an HPLC column was kept at 40° C., water with 0.1% formic acid was used as solvent A and acetonitrile with 0.1% formic acid was used as solvent B. The column was eluted first with 1% solvent B for 1 min and then with a linear gradient of 1-20% solvent B in 8 min, followed by another linear gradient of 20-99% solvent B in 2 min. The column was further cleaned with 99% solvent B for 2 min and then re-equilibrated with 1% solvent B for 2 min. The flow rate was set as 1 ml/min, and the products were detected at […] with a PDA detector.
E. coli BL21 Gold cells containing pETDuet and pET28b derived plasmids were grown from glycerol stock overnight in 5 mL Luria broth with 0.1 mg/mL ampicillin and 0.05 mg/mL kanamycin (37° C., 250 rpm). The pre-culture was used to inoculate 100 mL of Terrific broth medium (0.1 mg/mL ampicillin and 0.05 mg/mL kanamycin) in a 500 mL flask; this culture was incubated at 37° C., 250 rpm to OD600=0.6-0.8. The cultures were cooled on water-ice mixture and induced with 0.5 mM IPTG, Expression was conducted at 18° C., 250 rpm, for 20 h. For the culture of E. coli BL21 Gold cells containing pACYCDuet and pET28b derived plasmids, 0.05 mg/mL chloramphenicol was used instead of 0.05 mg/mL kanamycin. The cultures were then harvested and resuspended to OD600=30 in test medium, Aliquots of the cell suspension were used in the whole cell transformation. To a test tube was added 5 mL cell suspension, 25 μL 100 mM L-Trp or L-Trp analogues, and 25 μL 100 mM L-Arg when necessary. The mixture was then incubated at different conditions. The reactions were quenched by adding equal volume of methanol and the resulting mixture was aliquoted and transferred to a microcentrifuge tube and centrifuged at 14,000 rpm for 10 minutes. The supernatant was transferred to an HPLC vial and analyzed by LC-MS.

[3] = molecular target: T1, TnaA (Escherichia coli, UniProt P0A853); experiment: TnaA assay (in vitro, recombinant tryptophanase); assay type: biochemical, E. coli; details: 0.1 μM purified TnaA, 0.5 mM substrate, 37° C., 10 min
T1 construct: made in house; host or cells: E. coli BL21-GOLD (DE3)
T1 sequence (P0A853 whole entry): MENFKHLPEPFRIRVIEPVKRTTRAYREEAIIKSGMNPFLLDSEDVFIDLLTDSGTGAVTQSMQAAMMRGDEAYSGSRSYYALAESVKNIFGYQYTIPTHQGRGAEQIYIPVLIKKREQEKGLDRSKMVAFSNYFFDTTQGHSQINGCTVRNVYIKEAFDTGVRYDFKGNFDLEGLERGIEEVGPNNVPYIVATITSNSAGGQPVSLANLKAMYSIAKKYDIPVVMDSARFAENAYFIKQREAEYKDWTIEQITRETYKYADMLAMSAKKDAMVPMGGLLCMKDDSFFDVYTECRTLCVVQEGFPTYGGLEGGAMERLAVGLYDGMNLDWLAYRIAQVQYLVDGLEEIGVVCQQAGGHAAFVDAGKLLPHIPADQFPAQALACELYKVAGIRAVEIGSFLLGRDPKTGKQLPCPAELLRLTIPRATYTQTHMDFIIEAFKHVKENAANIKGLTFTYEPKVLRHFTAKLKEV
Description: The reactions contained 0.1 μM purified TnaA and 0.5 mM substrate and incubated at 37° C. for 10 min. No 4-nitro indole was produced in the enzyme reaction.
PCR amplicons were analyzed by agarose gel and extracted with GeneJET Gel Extraction Kit (Thermo). Purified PCR products and pET28b were digested with corresponding restriction enzymes, purified and then ligated to create expression constructs. Insert in the construct was sequenced to exclude potential errors introduced during PCR amplification and gene manipulation. Recombinant TnaA was prepared in E. coli BL21-GOLD (DE3). The enzyme assay (0.1 mL) contained 100 mM potassium phosphate buffer (pH 8.3), 0.2 mM pyridoxal 5-phosphate and 0.1 μM purified tnaA. The reaction mixtures were pre-warmed at 37° C. for 5 minutes, and initiated by adding 0.5 mM 1-Trp or Nitrotrp as substrate. After 10 minutes, the reactions were quenched by mixing well with 0.2 mL of methanol. After centrifugation at 14,000 rpm for 30 minutes, the supernatant was subject to HPLC analysis. All experiments were independently repeated at least twice.

Compound | nitration of fed analog by E. coli-II [1] | nitration of tryptophan analogue by whole cell nitration system [2] | conversion rates in whole cell-based nitration [2] | conversion/decomposition by recombinant TnaA [3] | nitration activity of the strain toward substrate (rank) ([1]; 5 mM analog fed to E. coli-II)
N[C@@H](Cc1c[nH]c2cccc(F)c12)C(=O)O [Example 4-F-Trp, 4-F-Trp] | nitrated | successfully nitrated |  |  | 
Cc1cccc2[nH]cc(C[C@H](N)C(=O)O)c12 [Example 4-Me-Trp, 4-Me-Trp] | nitrated | successfully nitrated | highest conversion rates |  | 
N[C@@H](Cc1c[nH]c2cccc([N+](=O)[O-])c12)C(=O)O [Example 4-NO2-L-Trp, 4-NO2-L-Trp] |  |  |  | not able to decompose | 
N[C@@H](Cc1c[nH]c2ccc(F)cc12)C(=O)O [Example 5-F-Trp, 5-F-Trp] | nitrated | successfully nitrated | highest conversion rates |  | 
Cc1ccc2[nH]cc(C[C@H](N)C(=O)O)c2c1 [Example 5-Me-Trp, 5-Me-Trp] | nitrated | successfully nitrated | highest conversion rates |  | highest nitration activity
COc1ccc2[nH]cc(C[C@H](N)C(=O)O)c2c1 [Example 5-MeO-Trp, 5-MeO-Trp] | nitrated | successfully nitrated |  |  | 
N[C@@H](Cc1c[nH]c2cc(F)ccc12)C(=O)O [Example 6-F-Trp, 6-F-Trp] | nitrated | successfully nitrated |  |  | 
Cc1cccc2c(C[C@H](N)C(=O)O)c[nH]c12 [Example 7-Me-Trp, 7-Me-Trp] | nitrated | successfully nitrated |  |  | 
N[C@@H](Cc1c[nH]c2ccccc12)C(=O)O [L-Trp, L-tryptophan] |  |  |  | produced indole | 
N[C@@H](Cc1c[nH]c2cccc([N+](=O)[O-])c12)C(=O)O [Nitrotrp] |  |  |  | does not convert; also recorded: not observed | 
C[C@](N)(Cc1c[nH]c2ccccc12)C(=O)O [α-Me-Trp] | nitrated | successfully nitrated |  |  | 

— US12319946B2, “Methods for producing modified bacteria for production of nitroaromatics” (priority 2018, dated 2025)
